Measured values from patent US8247211B2, “Glycopeptide antibiotics” (American Cyanamid Company, priority 2001, dated 2012).

What was measured:
Enterococcus sp. = test: In vitro antibacterial evaluation: minimum inhibitory concentration (MIC), broth dilution method; assay type: cell-based; details: 18 hours at 35° C.
Summary of the method: (§1)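 An MIC is reported for each organism as the least concentration giving inhibition, using broth dilution over 64-0.06 μg/mL with a 5×10^5 CFU/mL inoculum.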

Staphylococcus sp. = test: as above; assay type: cell-based; details: 18 hours at 35° C.
Summary of the method: as §1

Streptococcus sp. = test: as above; assay type: cell-based; details: 18 hours at 35° C.
Summary of the method: as §1

[1] = test system: Staphylococcus aureus-SMITH (GC 4543); test: Acute lethal infection in mice (ED50); assay type: in vivo; details: female CD-1 mice, intraperitoneal challenge, intravenous dose 30 min. after infection, 7 day survival ratios
Summary of the method: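 Median effective dose is calculated from 7-day survival ratios pooled across three separate tests. Mice (female CD-1) receive an intraperitoneal bacterial challenge in broth or hog gastric mucin, then intravenous drug 30 min later, five animals per dose level.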

[2] = Anatomic pathology (heart and kidney histopathology) in mice; assay type: in vivo, CD-1 mice; details: 20 mg/kg intravenously daily for 9 days, microscopic histopathology on day 10
Summary of the method: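 Juvenile CD-1 mice (20 days old; 5 vehicle, 5 treated) received glycopeptide antibiotic 20 mg/kg i.v. daily for 9 days. Necropsied tissues formalin-fixed, paraffin-embedded, H&E stained and examined microscopically; findings graded slight to severe versus controls.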

Escherichia coli [3] = test: In vitro antibacterial evaluation: minimum inhibitory concentration (MIC), broth dilution method; assay type: cell-based; details: broth dilution, 18 hours at 35° C.
Escherichia coli [4] = test: as above; assay type: cell-based; details: 18 hours at 35° C.
Summary of the method: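 NCCLS M7-A2 broth dilution with Mueller-Hinton II, testing 64-0.06 μg/mL antibiotic against 5×10^5 CFU/mL inocula. Test strains include recent methicillin-, penicillin- or vancomycin-resistant clinical isolates. MIC is the lowest concentration preventing growth.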

[5] = broth dilution, inoculum 5×10^5 CFU/mL

Cc1ccc(Oc2cccc(-c3nc4cc(CC5NC(=O)C(C(C)c6ccccc6)NC(=O)CNC(=O)C(CO)NC(=O)C(C(O)C6CNC(=N)N6C6OC(CO)C(O)C(O)C6O)NC(=O)C(C(O)C6CNC(=N)N6)NC5=O)ccc4o3)c2)cc1 (stereo not shown) [Example 28]
1 µg/mL: MIC Streptococcus pyogenes (GC 4563) (Streptococcus sp.; Streptococcus pyogenes (GC 4563), broth dilution) | MIC Streptococcus pyogenes (GC 4563) (Streptococcus sp.; broth dilution)
64 µg/mL: MIC Escherichia coli (ATCC 25922) (Escherichia coli [3]) | MIC Escherichia coli (GC 4559) (Escherichia coli [3])
8 µg/mL: MIC Enterococcus faecalis (ATCC 29212) (Enterococcus sp.; Enterococcus faecalis (ATCC 29212), broth dilution) | MIC Enterococcus faecalis (GC 2691) (Enterococcus sp.; Enterococcus faecalis (GC 2691), broth dilution) | MIC Enterococcus faecalis (GC 3059) (Enterococcus sp.; Enterococcus faecalis (GC 3059), broth dilution) | MIC Enterococcus faecalis (GC 4552) (Enterococcus sp.; Enterococcus faecalis (GC 4552), broth dilution) | MIC Enterococcus faecalis (GC 4554) (Enterococcus sp.; Enterococcus faecalis (GC 4554), broth dilution) | MIC Enterococcus faecalis (GC 6189) (Enterococcus sp.; Enterococcus faecalis (GC 6189), broth dilution) | MIC Enterococcus faecium (GC 2243) (Enterococcus sp.; Enterococcus faecium (GC 2243), broth dilution) | MIC Enterococcus faecium (GC 4556) (Enterococcus sp.; Enterococcus faecium (GC 4556), broth dilution) | MIC Enterococcus faecalis (ATCC 29212) (Enterococcus sp.; broth dilution) | MIC Enterococcus faecalis (GC 2691) (Enterococcus sp.; broth dilution) | MIC Enterococcus faecalis (GC 3059) (Enterococcus sp.; broth dilution) | MIC Enterococcus faecalis (GC 4552) (Enterococcus sp.; broth dilution) | MIC Enterococcus faecalis (GC 4554) (Enterococcus sp.; broth dilution) | MIC Enterococcus faecalis (GC 6189) (Enterococcus sp.; broth dilution) | MIC Enterococcus faecium (GC 2243) (Enterococcus sp.; broth dilution) | MIC Enterococcus faecium (GC 4556) (Enterococcus sp.; broth dilution) | MIC Escherichia coli (GC 4560) (Escherichia coli [3])
8 mg/kg: median effective dose (ED50), Staphylococcus aureus-SMITH (GC 4543) [1]
0: Anatomical Pathology (Day 10), Heart [2] | Anatomical Pathology (Day 10), Kidney [2]
4 µg/mL: MIC Enterococcus avium (GC 4558) (Enterococcus sp.; Enterococcus avium (GC 4558), broth dilution) | MIC Enterococcus faecalis (GC 2242) (Enterococcus sp.; Enterococcus faecalis (GC 2242), broth dilution) | MIC Enterococcus faecalis (GC 4553) (Enterococcus sp.; Enterococcus faecalis (GC 4553), broth dilution) | MIC Enterococcus faecium (GC 4557) (Enterococcus sp.; Enterococcus faecium (GC 4557), broth dilution) | MIC Enterococcus avium (GC 4558) (Enterococcus sp.; broth dilution) | MIC Enterococcus faecalis (GC 2242) (Enterococcus sp.; broth dilution) | MIC Enterococcus faecalis (GC 4553) (Enterococcus sp.; broth dilution) | MIC Enterococcus faecium (GC 4557) (Enterococcus sp.; broth dilution) | MIC Staphylococcus aureus-SMITH (GC 4543) (Staphylococcus sp.; strain SMITH GC 4543, broth dilution) | MIC Streptococcus agalactiae (GC 4564) (Streptococcus sp.; Streptococcus agalactiae (GC 4564), broth dilution) | MIC Streptococcus pneumoniae (ATCC 6301) (Streptococcus sp.; Streptococcus pneumoniae (ATCC 6301), broth dilution) | MIC Streptococcus pneumoniae (GC 1894) (Streptococcus sp.; Streptococcus pneumoniae (GC 1894), broth dilution) | MIC Streptococcus pneumoniae (GC 4565) (Streptococcus sp.; Streptococcus pneumoniae (GC 4565), broth dilution) | MIC Streptococcus agalactiae (GC 4564) (Streptococcus sp.; broth dilution) | MIC Streptococcus pneumoniae (ATCC 6301) (Streptococcus sp.; broth dilution) | MIC Streptococcus pneumoniae (GC 1894) (Streptococcus sp.; broth dilution) | MIC Streptococcus pneumoniae (GC 4565) (Streptococcus sp.; broth dilution)

COc1ccc2cc(COC3C(CO)OC(OC4C(CO)OC(Oc5ccc(CC6NC(=O)C(C(C)c7ccccc7)NC(=O)CNC(=O)C(CO)NC(=O)C(C(O)C7CNC(=N)N7C7OC(CO)C(O)C(O)C7O)NC(=O)C(C(O)C7CNC(=N)N7)NC6=O)cc5)C(O)C4O)C(O)C3O)ccc2c1 (stereo not drawn) [Example 230a, Cyclo[glycyl-β-methylphenylalanyl-O-[4-O-[4-O-[(6-methoxy-2-naphthyl)methyl]hexopyranosyl]hexopyranosyl]tyrosyl-3-(2-iminoimidazolidin-4-yl)seryl-3-(3-hexopyranosyl-2-iminoimidazolidin-4-yl)serylseryl]]
0.5 to 2 µg/mL: MIC Coagulase Negative Staphylococcus (GC 4547) (Staphylococcus sp.; Coagulase Negative Staphylococcus (GC 4547)) | MIC Staphylococcus aureus (GC 1131) (Staphylococcus sp.; Staphylococcus aureus (GC 1131)) | MIC Staphylococcus aureus (GC 4541) (Staphylococcus sp.; Staphylococcus aureus (GC 4541)) | MIC Staphylococcus aureus-SMITH (GC 4543) (Staphylococcus sp.; Staphylococcus aureus-SMITH (GC 4543))
0.5 to 1 µg/mL: MIC Staphylococcus aureus (GC 4545) (Staphylococcus sp.; Staphylococcus aureus (GC 4545))
2 to 4 µg/mL: MIC Enterococcus avium (GC 4558) (Enterococcus sp.; Enterococcus avium (GC 4558)) | MIC Enterococcus faecalis (ATCC 29212) (Enterococcus sp.; Enterococcus faecalis (ATCC 29212)) | MIC Enterococcus faecalis (GC 2242) (Enterococcus sp.; Enterococcus faecalis (GC 2242)) | MIC Enterococcus faecalis (GC 2691) (Enterococcus sp.; Enterococcus faecalis (GC 2691)) | MIC Enterococcus faecalis (GC 3059) (Enterococcus sp.; Enterococcus faecalis (GC 3059)) | MIC Enterococcus faecalis (GC 4552) (Enterococcus sp.; Enterococcus faecalis (GC 4552)) | MIC Enterococcus faecalis (GC 4553) (Enterococcus sp.; Enterococcus faecalis (GC 4553)) | MIC Enterococcus faecalis (GC 4554) (Enterococcus sp.; Enterococcus faecalis (GC 4554)) | MIC Enterococcus faecium (GC 2243) (Enterococcus sp.; Enterococcus faecium (GC 2243)) | MIC Enterococcus faecium (GC 4556) (Enterococcus sp.; Enterococcus faecium (GC 4556)) | MIC Enterococcus avium (GC 4558) (Enterococcus sp.; [5]) | MIC Enterococcus faecalis (ATCC 29212) (Enterococcus sp.; [5]) | MIC Enterococcus faecalis (GC 2242) (Enterococcus sp.; [5]) | MIC Enterococcus faecalis (GC 2691) (Enterococcus sp.; [5]) | MIC Enterococcus faecalis (GC 3059) (Enterococcus sp.; [5]) | MIC Enterococcus faecalis (GC 4552) (Enterococcus sp.; [5]) | MIC Enterococcus faecalis (GC 4553) (Enterococcus sp.; [5]) | MIC Enterococcus faecalis (GC 4554) (Enterococcus sp.; [5]) | MIC Enterococcus faecium (GC 2243) (Enterococcus sp.; [5]) | MIC Enterococcus faecium (GC 4556) (Enterococcus sp.; [5])
0: Anatomical Pathology (Day 10), Heart [2]
1 to 2 µg/mL: MIC Enterococcus faecium (GC 4557) (Enterococcus sp.; Enterococcus faecium (GC 4557)) | MIC Enterococcus faecium (GC 4557) (Enterococcus sp.; [5]) | MIC Staphylococcus aureus (ATCC 29213) (Staphylococcus sp.; Staphylococcus aureus (ATCC 29213)) | MIC Staphylococcus aureus (GC 3051) (Staphylococcus sp.; Staphylococcus aureus (GC 3051)) | MIC Staphylococcus aureus (GC 3053) (Staphylococcus sp.; Staphylococcus aureus (GC 3053)) | MIC Staphylococcus aureus (GC 4544) (Staphylococcus sp.; Staphylococcus aureus (GC 4544))
1 to 4 µg/mL: MIC Enterococcus faecalis (GC 6189) (Enterococcus sp.; Enterococcus faecalis (GC 6189)) | MIC Enterococcus faecalis (GC 6189) (Enterococcus sp.; [5])
32 µg/mL: MIC Escherichia coli (ATCC 25922) (Escherichia coli [4]; Escherichia coli (ATCC 25922)) | MIC Escherichia coli (GC 4559) (Escherichia coli [4]; Escherichia coli (GC 4559))
0.06 mg/kg: median effective dose (ED50), Staphylococcus aureus-SMITH (GC 4543) [1]
+: Anatomical Pathology (Day 10), Kidney [2]
<0.06 µg/mL: MIC Streptococcus pneumoniae (ATCC 6301) (Streptococcus sp.; Streptococcus pneumoniae (ATCC 6301)) | MIC Streptococcus pneumoniae (GC 1894) (Streptococcus sp.; Streptococcus pneumoniae (GC 1894)) | MIC Streptococcus pneumoniae (GC 4565) (Streptococcus sp.; Streptococcus pneumoniae (GC 4565)) | MIC Streptococcus pneumoniae (ATCC 6301) (Streptococcus sp.; [5]) | MIC Streptococcus pneumoniae (GC 1894) (Streptococcus sp.; [5]) | MIC Streptococcus pneumoniae (GC 4565) (Streptococcus sp.; [5])
